In general, Kd refers to the concentration at which binding is half-saturated. As usually defined, the KD is the free concentration of one partner at which half of the binding sites on the other are occupied at equilibrium, for simple one-to-one binding.

The source of these data is paper PMC11582565, “Allostery can convert binding free energies into concerted domain motions in enzymes” (Nature Communications, 2024).

Common to all, as to assay type: binding
The target of experiment [1] is T1, adenylate kinase (AK_2+, AK) (Escherichia coli, UniProt P69441).
T1 construct: gene adk; full-length AK (214 residues) with C-terminal extension GKK plus Strep-tag WSHPQFEK kept; pET22b, E. coli BL21(DE3); single enzyme trapped in ClyA-AS nanopore
Kind of experiment: single-molecule nanopore (ClyA-AS) recording, Hill fit of LID-closed fraction.

Experiment [2] has as its target T1, adenylate kinase (AK_2+, AK). The experiment is described as above. As to conditions: minor component; type II blockades (12 ± 6% of blockades, alternative conformer); Hill coefficient 1.7; 400 mM KCl, 15 mM Tris, 2 mM MgCl2, pH 7.5, 22 °C, -90 mV.
The target is the same in experiment [3]. Kind of experiment: single-molecule nanopore (ClyA-AS) recording, ligand-induced current levels M1-M4. To be noted: inhibitor; added cis or trans; 400 mM KCl, 15 mM Tris, 2 mM MgCl2, pH 7.5, 22 °C, -90 mV.

T1 sequence (P69441 whole entry): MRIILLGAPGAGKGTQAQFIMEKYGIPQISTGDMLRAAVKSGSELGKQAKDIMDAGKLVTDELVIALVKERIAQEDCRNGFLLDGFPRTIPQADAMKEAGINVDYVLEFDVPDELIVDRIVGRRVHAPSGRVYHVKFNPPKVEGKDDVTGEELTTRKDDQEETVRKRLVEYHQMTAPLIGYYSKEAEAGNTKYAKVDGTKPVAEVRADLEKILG

As to `Nc1ncnc2c1ncn2[C@@H]1O[C@H](COP(=O)(O)OP(=O)(O)O)[C@@H](O)[C@H]1O` [ADP], the affinity in experiment [1], expressed as Kd, was 45.4 ± 1.6 µM. Besides, the equilibrium dissociation constant (KD) in experiment [2] is 123.2 ± 18.1 µM.
With `Nc1ncnc2c1ncn2[C@@H]1O[C@H](COP(=O)(O)OP(=O)(O)OP(=O)(O)OP(=O)(O)OP(=O)(O)OC[C@H]2O[C@@H](n3cnc4c(N)ncnc43)[C@H](O)[C@@H]2O)[C@@H](O)[C@H]1O` [Ap5A, P^1,P^5-Di-(adenosine-5’)-pentaphosphate], in experiment [3], the “single-molecule nanopore (ClyA-AS) recording, ligand-induced current levels M1-M” value is “The addition of Ap5A to either the cis or trans side of the nanopore induced”.
